In PubChem BioAssay AID1963443 (Molecular Pharmacology Branch, DTP, NCI, 2024):

System: MDA-MB-231 complex spheroids, growth inhibition
Assay: Anticancer human tumor MDA-MB-231 cell line growth inhibition [Asc];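 note: spheroids exposed to compounds for 7 days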
Details: for IC50: curve of first compound; for viability, T/C: stronger effect = lower value; active = viability on the fitted dose curve at most 10% of control; inactive = the rest
Outline: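 Complex solid-tumor spheroids incorporating human endothelial and mesenchymal stem cells received single agents or combinations over half-log dilution ranges anchored to clinical Cmax.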

[1] = second compound 0.1 µM, first compound 0.0316 µM
[2] = second compound 0.1 µM, first compound 0.1 µM
[3] = second compound 0.1 µM, first compound 0.316 µM
[4] = second compound 0.1 µM, first compound 1 µM
[5] = second compound 0.1 µM, first compound 3.16 µM
[6] = second compound 0.1 µM, first compound 10 µM
[7] = second compound 0.316 µM, first compound 0.0316 µM
[8] = second compound 0.316 µM, first compound 0.1 µM
[9] = second compound 0.316 µM, first compound 0.316 µM
[10] = second compound 0.316 µM, first compound 1 µM
[11] = second compound 0.316 µM, first compound 3.16 µM
[12] = second compound 0.316 µM, first compound 10 µM
[13] = second compound 1 µM, first compound 0.0316 µM
[14] = second compound 1 µM, first compound 0.1 µM
[15] = second compound 1 µM, first compound 0.316 µM
[16] = second compound 1 µM, first compound 1 µM
[17] = second compound 1 µM, first compound 3.16 µM
[18] = second compound 1 µM, first compound 10 µM
[19] = second compound 3.16 µM, first compound 0.0316 µM
[20] = second compound 3.16 µM, first compound 0.1 µM
[21] = second compound 10 µM, first compound 0.0316 µM
[22] = second compound 10 µM, first compound 0.1 µM

C=C(F)C(=O)N1CCN(c2nc(OCC3CCCN3C)nc3c2CCN(c2cccc4cccc(Cl)c24)C3)CC1CC#N (stereo not given) + CNC(C)C(=O)NC1CN(S(=O)(=O)c2cccc(S(=O)(=O)N3CCC4CCC(C(=O)NC(c5ccccc5)c5ccccc5)N4C(=O)C(NC(=O)C(C)NC)C3)c2)CCC2CCC(C(=O)NC(c3ccccc3)c3ccccc3)N2C1=O
< 31.6 nM: IC50 (second compound 0.01 µM) | IC50 (second compound 0.0316 µM) | IC50 (second compound 0.1 µM) | IC50 (second compound 0.316 µM) | IC50 (second compound 1 µM)
active: viability, T/C (second compound 0.01 µM, first compound 0.0316 µM) 1.99% | viability, T/C (second compound 0.01 µM, first compound 0.1 µM) 2.81% | viability, T/C (second compound 0.01 µM, first compound 0.316 µM) 1.5% | viability, T/C (second compound 0.01 µM, first compound 1 µM) 1.02% | viability, T/C (second compound 0.01 µM, first compound 3.16 µM) 0.39% | viability, T/C (second compound 0.01 µM, first compound 10 µM) 0.09% | viability, T/C (second compound 0.0316 µM, first compound 0.0316 µM) 1.12% | viability, T/C (second compound 0.0316 µM, first compound 0.1 µM) 2.63% | viability, T/C (second compound 0.0316 µM, first compound 0.316 µM) 1.75% | viability, T/C (second compound 0.0316 µM, first compound 1 µM) 1.07% | viability, T/C (second compound 0.0316 µM, first compound 3.16 µM) 0.75% | viability, T/C (second compound 0.0316 µM, first compound 10 µM) 0.93% | viability, T/C [1] 0.94% | viability, T/C [2] 1.79% | viability, T/C [3] 1.68% | viability, T/C [4] 0.86% | viability, T/C [5] 0.38% | viability, T/C [6] 0.08% | viability, T/C [7] 0.86% | viability, T/C [8] 1.12% | viability, T/C [9] 1.54% | viability, T/C [10] 1.37% | viability, T/C [11] 0.42% | viability, T/C [12] 0.08% | viability, T/C [13] 1.4% | viability, T/C [14] 1.56% | viability, T/C [15] 1.18% | viability, T/C [16] 1.49% | viability, T/C [17] 0.43% | viability, T/C [18] 0.98%

CCN1C(C(=O)NC23CCC(C(=O)O)(CC2)CC3)C(c2cccc(Cl)c2F)C2(C(=O)Nc3cc(Cl)ccc32)C12CCCCC2 (stereo not given) + CNC(C)C(=O)NC1CN(S(=O)(=O)c2cccc(S(=O)(=O)N3CCC4CCC(C(=O)NC(c5ccccc5)c5ccccc5)N4C(=O)C(NC(=O)C(C)NC)C3)c2)CCC2CCC(C(=O)NC(c3ccccc3)c3ccccc3)N2C1=O
< 9.49 nM: IC50 (second compound 0.01 µM) | IC50 (second compound 0.0316 µM) | IC50 (second compound 0.1 µM) | IC50 (second compound 0.316 µM) | IC50 (second compound 1 µM)
active: viability, T/C (second compound 0.01 µM, first compound 0.00949 µM) 2.02% | viability, T/C (second compound 0.01 µM, first compound 0.03 µM) 2.75% | viability, T/C (second compound 0.01 µM, first compound 0.0949 µM) 1.79% | viability, T/C (second compound 0.01 µM, first compound 0.3 µM) 1.37% | viability, T/C (second compound 0.01 µM, first compound 0.949 µM) 2.73% | viability, T/C (second compound 0.01 µM, first compound 3 µM) 2.05% | viability, T/C (second compound 0.0316 µM, first compound 0.00949 µM) 1.54% | viability, T/C (second compound 0.0316 µM, first compound 0.03 µM) 2.84% | viability, T/C (second compound 0.0316 µM, first compound 0.0949 µM) 1.94% | viability, T/C (second compound 0.0316 µM, first compound 0.3 µM) 0.92% | viability, T/C (second compound 0.0316 µM, first compound 0.949 µM) 1.76% | viability, T/C (second compound 0.0316 µM, first compound 3 µM) 1.43% | viability, T/C (second compound 0.1 µM, first compound 0.00949 µM) 1.27% | viability, T/C (second compound 0.1 µM, first compound 0.03 µM) 1.6% | viability, T/C (second compound 0.1 µM, first compound 0.0949 µM) 1.85% | viability, T/C (second compound 0.1 µM, first compound 0.3 µM) 0.87% | viability, T/C (second compound 0.1 µM, first compound 0.949 µM) 1.78% | viability, T/C (second compound 0.1 µM, first compound 3 µM) 2.03% | viability, T/C (second compound 0.316 µM, first compound 0.00949 µM) 0.92% | viability, T/C (second compound 0.316 µM, first compound 0.03 µM) 2.14% | viability, T/C (second compound 0.316 µM, first compound 0.0949 µM) 1.07% | viability, T/C (second compound 0.316 µM, first compound 0.3 µM) 0.78% | viability, T/C (second compound 0.316 µM, first compound 0.949 µM) 1.14% | viability, T/C (second compound 0.316 µM, first compound 3 µM) 1.24% | viability, T/C (second compound 1 µM, first compound 0.00949 µM) 1.09% | viability, T/C (second compound 1 µM, first compound 0.03 µM) 0.9% | viability, T/C (second compound 1 µM, first compound 0.0949 µM) 0.88% | viability, T/C (second compound 1 µM, first compound 0.3 µM) 2.3% | viability, T/C (second compound 1 µM, first compound 0.949 µM) 0.81% | viability, T/C (second compound 1 µM, first compound 3 µM) 0.71%

Cn1ncnc1[C@H]1c2n[nH]c(=O)c3cc(F)cc(c23)N[C@@H]1c1ccc(F)cc1 + Cc1c(S(C)(=O)=O)c(-c2cc(F)cc(N3CCN(c4ccc(NS(=O)(=O)c5ccc(NC(CCN6CCC(C(=O)OCCCP(=O)(O)O)CC6)CSc6ccccc6)c(S(=O)(=O)C(F)(F)F)c5)cc4)CC3)c2)c(-c2ccc(Cl)cc2)n1C(C)C
inactive: viability, T/C (second compound 0.1 µM, first compound 0.000316 µM) 104% | viability, T/C (second compound 0.1 µM, first compound 0.001 µM) 95.4% | viability, T/C (second compound 0.1 µM, first compound 0.00316 µM) 107% | viability, T/C (second compound 0.1 µM, first compound 0.01 µM) 92.3% | viability, T/C [1] 87.8% | viability, T/C [2] 87.2% | viability, T/C (second compound 0.316 µM, first compound 0.000316 µM) 103% | viability, T/C (second compound 0.316 µM, first compound 0.001 µM) 105% | viability, T/C (second compound 0.316 µM, first compound 0.00316 µM) 95.9% | viability, T/C (second compound 0.316 µM, first compound 0.01 µM) 90.6% | viability, T/C [7] 80.7% | viability, T/C [8] 81% | viability, T/C (second compound 1 µM, first compound 0.000316 µM) 101% | viability, T/C (second compound 1 µM, first compound 0.001 µM) 107% | viability, T/C (second compound 1 µM, first compound 0.00316 µM) 105% | viability, T/C (second compound 1 µM, first compound 0.01 µM) 89.5% | viability, T/C [13] 82.3% | viability, T/C [14] 75.7% | viability, T/C (second compound 3.16 µM, first compound 0.000316 µM) 101% | viability, T/C (second compound 3.16 µM, first compound 0.001 µM) 95.5% | viability, T/C (second compound 3.16 µM, first compound 0.00316 µM) 82.2% | viability, T/C (second compound 3.16 µM, first compound 0.01 µM) 83.7% | viability, T/C [19] 68.7% | viability, T/C [20] 63.1% | viability, T/C (second compound 10 µM, first compound 0.000316 µM) 115% | viability, T/C (second compound 10 µM, first compound 0.001 µM) 108% | viability, T/C (second compound 10 µM, first compound 0.00316 µM) 98.5% | viability, T/C (second compound 10 µM, first compound 0.01 µM) 91.3% | viability, T/C [21] 74.4% | viability, T/C [22] 65%
> 100 nM: IC50 (second compound 0.1 µM) | IC50 (second compound 0.316 µM) | IC50 (second compound 1 µM) | IC50 (second compound 3.16 µM) | IC50 (second compound 10 µM)

O=C(c1cc(Cc2n[nH]c(=O)c3ccccc23)ccc1F)N1CCN(C(=O)C2CC2)CC1 + Cc1c(S(C)(=O)=O)c(-c2cc(F)cc(N3CCN(c4ccc(NS(=O)(=O)c5ccc(NC(CCN6CCC(C(=O)OCCCP(=O)(O)O)CC6)CSc6ccccc6)c(S(=O)(=O)C(F)(F)F)c5)cc4)CC3)c2)c(-c2ccc(Cl)cc2)n1C(C)C
inactive: viability, T/C [1] 96.8% | viability, T/C [2] 98.9% | viability, T/C [3] 94.9% | viability, T/C [4] 85.7% | viability, T/C [5] 78.3% | viability, T/C [6] 68.9% | viability, T/C [7] 91.7% | viability, T/C [8] 96.2% | viability, T/C [9] 100% | viability, T/C [10] 87.2% | viability, T/C [11] 87% | viability, T/C [12] 65.6% | viability, T/C [13] 97.7% | viability, T/C [14] 95.3% | viability, T/C [15] 88.8% | viability, T/C [16] 85% | viability, T/C [17] 77.5% | viability, T/C [18] 54.5% | viability, T/C [19] 86.8% | viability, T/C [20] 93.8% | viability, T/C (second compound 3.16 µM, first compound 0.316 µM) 89.3% | viability, T/C (second compound 3.16 µM, first compound 1 µM) 83.9% | viability, T/C (second compound 3.16 µM, first compound 3.16 µM) 72.2% | viability, T/C (second compound 3.16 µM, first compound 10 µM) 42.3% | viability, T/C [21] 102% | viability, T/C [22] 101% | viability, T/C (second compound 10 µM, first compound 0.316 µM) 96.8% | viability, T/C (second compound 10 µM, first compound 1 µM) 91% | viability, T/C (second compound 10 µM, first compound 3.16 µM) 75.7% | viability, T/C (second compound 10 µM, first compound 10 µM) 36.9%
7460 nM: IC50 (second compound 3.16 µM)
> 10000 nM: IC50 (second compound 0.1 µM) | IC50 (second compound 0.316 µM) | IC50 (second compound 1 µM)
6790 nM: IC50 (second compound 10 µM)
